Results as given in US10975087B2, “Solid forms of tetrahydropyranyl amino-pyrrolopyrimidinone compounds” (ArQule, Inc., priority 2018, dated 2021).
“And” between values parts separate entries of the source, which are not always exact repeats. Identical values can stand only once. “Also recorded” adds a separate entry of the source.

Key:
Type in all cases: physicochemical
[1] = Accelerated storage conditions (75% RH/40° C. for 72 hours), XRPD
[2] = Dynamic vapor sorption (DVS); conditions: for Post-DVS XRPD analysis (form): after exposure to elevated humidity; for moisture uptake by DVS: at 90% RH
Protocol: Approximately 10-20 mg of sample was placed into a mesh vapor sorption balance pan and loaded into a DVS-1 dynamic vapor sorption balance by Surface Measurement Systems. […] After completion of the sorption cycle, the sample was dried using the same procedure to 0% RH and then a second sorption cycle back to 40% RH. Two cycles were performed. The weight change during the sorption/desorption cycles were plotted, allowing for the hygroscopic nature of the sample to be determined. XRPD analysis may be then carried out on any solid retained.

[3] = Karl Fischer coulometric titration (KF) water content
Protocol: Approximately 10-30 mg of solid material was accurately weighed into a vial. The solid was then manually introduced into the titration cell of a Mettler Toledo C30 Compact Titrator. The vial was back-weighed after the addition of the solid and the weight of the added solid entered on the instrument. Titration was initiated once the sample had fully dissolved in the cell. The water content was calculated automatically by the instrument as a percentage and the data printed.

[4] = Thermodynamic solubility pH measurements; conditions: for XRPD after thermodynamic solubility studies: respective buffer; for Solubility (mg/mL): Input Solvent pH 6.5, 25° C.
Protocol: After 2 hours at 25° C., the pH of each slurry was measured and the pH was adjusted, where required. After 24 hours at 25° C., the pH of each slurry was measured and the pH was adjusted, where required. After 48 hours at 25° C., the slurries were separated by centrifugation. The solids were analyzed by XRPD, while the pH of the separated liquors were also measured.

[5] = Hydration studies in water/acetone mixtures; conditions: for Hydration study result (solid by XRPD): 5 days; for solid obtained in hydration study: the other experiments (remaining water contents/temperatures)
Protocol: Hydration experiments were performed at 25° C. and 50° C. in water/acetone mixtures with the following water content (volume %): 2%, 5%, and 20%. The samples were prepared by adding 250 μL of the water/acetone mixture to 15 mg of the salt sample. The samples were stirred at 25° C. or at 50° C. After 2 days, the samples were inspected for the presence of solid. If solid was not observed, additional salt material was added to the dissolved samples. Samples were stirred for an additional 3 days. After 5 days, samples were filtered and the solid obtained was analyzed by XRPD.

[6] = Salt disproportionation studies (slurry in deionized water); conditions: for XRPD after salt disproportionation study, 48 hours / measured pH after slurrying in water: 48 hours
Protocol: Samples of salts described herein were prepared for disproportionation studies. Approximately 15 mg of the salt material was suspended in 4 mL of deionized water at ambient temperature (ca. 22° C.). The slurry of the salt was shaken at ambient temperature and analyzed after: 1 h, 24 h, and 48 h. Each sample was filtered using a centrifuge filter. The solid was analyzed by XRPD. pH measurements were performed for the solution (three pH measurements were carried out for each sample and the average pH was calculated).

[7] = 7 day stability testing, open vials at 40° C./75% RH, ambient and 80° C.; conditions: for XRPD analysis after storage for 1 week: 80° C., and ambient temperature; for Purity after 1 week (%) / area % purity and form changes after 1 week: open vials; for T = 0 purity (%): T = 0, before storage; for area % purity and form changes after 1 week: ambient, 40° C./75% RH and 80° C.
[8] = Variable temperature X-ray powder diffraction (VT-XRPD)
Protocol: VT-XRPD analysis was carried out on a Philips X'Pert Pro Multipurpose diffractometer. The samples were scanned between 4 and 35.99° 2θ using Cu K radiation (α1 λ=1.54060 Å; α2=1.54443 Å; β=1.39225 Å; α1:α2 ratio=0.5) running in Bragg-Brentano geometry (step size 0.008° 2θ) using 40 kV/40 mA generator settings. Measurements were performed at each step of the temperature profile: 30° C. initial scan, 150° C., 200° C., 210° C., 230° C., and 30° C., final scan.

[9] = 2% and 5% water in acetone, 25° C.
[10] = 2% water in water/acetone, 25° C., Form = form of the same salt
[11] = 2% water in water/acetone, 50° C., Form = form of the same salt
[12] = 5% water in water/acetone, 25° C., Form = form of the same salt
[13] = 5% water in water/acetone, 50° C., Form = form of the same salt
[14] = 20% water in water/acetone, 25° C.
[15] = 20% water in water/acetone, 50° C.
[16] = Input Solvent Water, 25° C., 48 hours
[17] = Input Solvent pH 1, 25° C., 48 hours
[18] = Input Solvent pH 4.5, 25° C., 48 hours

## O=S(=O)(O)c1cccc2c(S(=O)(=O)O)cccc12
[1]
  stability under accelerated storage conditions (XRPD): decreased crystallinity

## O=C(O)C(=O)O.O=C(c1ccc(Oc2ccccc2)cc1Cl)c1c[nH]c2ncnc(N[C@@H]3CC[C@@H](CO)OC3)c12 [oxalate Form 3]
[1]
  stability under accelerated storage conditions (XRPD): stable

## O=C(c1ccc(Oc2ccccc2)cc1Cl)c1c[nH]c2ncnc(N[C@@H]3CC[C@@H](CO)OC3)c12.O=P(O)(O)O [phosphate Form 1]
[2]
  Post-DVS XRPD analysis (form): no change in form from the input material
  moisture uptake by DVS: ca. 3.2%
[1]
  stability under accelerated storage conditions (XRPD): stable
[3]
  KF moisture (water) content: 3.74%
[4]; 25° C., 48 hours
  XRPD after thermodynamic solubility studies: no change from the input material
[5]; [9]
  solid obtained in hydration study (XRPD): recovered
[5]; 2% water in acetone, 50° C.
  solid obtained in hydration study (XRPD): potentially new form
[5]; [10]
  Hydration study result (solid by XRPD): Form 1
[5]; [11]
  Hydration study result (solid by XRPD): Form 1
[5]; [12]
  Hydration study result (solid by XRPD): Form 1
[5]; [13]
  Hydration study result (solid by XRPD): Form 6
[5]; [14]
  Hydration study result (solid by XRPD): Gum
[5]; [15]
  Hydration study result (solid by XRPD): Gum
[5]
  solid obtained in hydration study: gum
[6]
  XRPD after salt disproportionation study, 48 hours: no change from the input material
[7]; 40° C./75% RH
  XRPD analysis after storage for 1 week: no change in form from the input material

## O=C(c1ccc(Oc2ccccc2)cc1Cl)c1c[nH]c2ncnc(N[C@@H]3CC[C@@H](CO)OC3)c12 [Form 10, (2-chloro-4-phenoxyphenyl)(4-(((3R,6S)-6-(hydroxymethyl)tetrahydro-2H-pyran-3-yl)amino)-7H-pyrrolo[2,3-d]pyrimidin-5-yl)methanone]
[2]
  hygroscopic nature by DVS: slightly hygroscopic
  Post-DVS XRPD analysis (form): no change in form, but reduction in crystallinity
  moisture uptake by DVS: 0.94%
[3]
  KF moisture (water) content: 1.48%
  KF water content in equivalents: 0.4 equivalents
[8]; 150° C.
  VT-XRPD form upon heating to 150° C.: persisted upon heating to 150 °C with poor crystallinity
[8]; 230° C.
  VT-XRPD form at 230° C.: became amorphous
[8]; VT-XRPD Run 1, Temp 30° C.
  Identity: Form 10
[8]; VT-XRPD Run 2, Temp 150° C.
  Identity: Form 10
[8]; VT-XRPD Run 3, Temp 200° C., two forms printed in two cells
  Identity: Form 10; also recorded: Form 12
[8]; VT-XRPD Run 4, Temp 210° C.
  Identity: Form 12
[8]; VT-XRPD Run 5, Temp 230° C.
  Identity: Amorphous
[8]; VT-XRPD Run 6, Temp 30° C.
  Identity: Amorphous
[8]; ca. 200° C. to ca. 210° C.
  VT-XRPD form between ca. 200° C. and ca. 210° C.: converted to Form 12
[8]; cooling to 30° C.
  VT-XRPD form upon cooling to 30° C.: remained amorphous

## O=C(c1ccc(Oc2ccccc2)cc1Cl)c1c[nH]c2ncnc(N[C@@H]3CC[C@@H](CO)OC3)c12.O=S(=O)(O)c1ccccc1 [besylate Form 1]
[2]
  Post-DVS XRPD analysis (form): no change in form from the input material
[1]
  stability under accelerated storage conditions (XRPD): stable
[3]
  KF moisture (water) content: 0.24% and 2.0%
[4]; Input Solvent Water
  pH - 2 Hours at 25° C.: 1.96
  pH - 24 Hours at 25° C.: 1.68
  pH - 48 Hours at 25° C.: 1.84
[4]; [16]
  Solubility: 200 µg/mL
[4]; Input Solvent pH 1
  pH - 2 Hours at 25° C.: 0.19
  pH - 24 Hours at 25° C.: 0.37
  pH - 48 Hours at 25° C.: 1.07
[4]; [17]
  Solubility: 200 µg/mL
[4]; Input Solvent pH 4.5
  pH - 2 Hours at 25° C.: 4.20
  pH - 24 Hours at 25° C.: 3.80
  pH - 48 Hours at 25° C.: 3.82
[4]; [18]
  Solubility: <100 µg/mL
[4]; Input Solvent pH 6.5
  pH - 2 Hours at 25° C.: 3.31
  pH - 24 Hours at 25° C.: 2.51
  pH - 48 Hours at 25° C.: 3.26
[4]; 48 hours
  Solubility (mg/mL): <LOD
[4]; 25° C., 48 hours
  XRPD after thermodynamic solubility studies: poorly crystalline; also recorded: no change from the input material
[5]; [9]
  solid obtained in hydration study (XRPD): recovered
[5]; [10]
  Hydration study result (solid by XRPD): Form 1
[5]; [11]
  Hydration study result (solid by XRPD): Form 1
[5]; [12]
  Hydration study result (solid by XRPD): Gum
[5]; [13]
  Hydration study result (solid by XRPD): Gum
[5]; [14]
  Hydration study result (solid by XRPD): Gum
[5]; [15]
  Hydration study result (solid by XRPD): Gum
[5]
  solid obtained in hydration study: gum
[6]
  XRPD after salt disproportionation study, 24 hours: gel-like, amorphous solid
  XRPD after salt disproportionation study, 48 hours: staying partially crystalline; also recorded: no change from the input material
[7]; 40° C./75% RH
  XRPD analysis after storage for 1 week: no change in form from the input material
  Purity after 1 week (%): 97.8%
[7]; 80° C.
  Purity after 1 week (%): 97.4%
[7]; Ambient
  Purity after 1 week (%): 97.4%
[7]
  T = 0 purity (%): 97.4%
  area % purity and form changes after 1 week: no decrease in area % purity or form changes

## O=C(c1ccc(Oc2ccccc2)cc1Cl)c1c[nH]c2ncnc(N[C@@H]3CC[C@@H](CO)OC3)c12.O=S(=O)(O)CCS(=O)(=O)O [edisylate Form 1]
[2]
  Post-DVS XRPD analysis (form): no change in form from the input material
  moisture uptake by DVS: ca. 4.6%
[3]
  KF moisture (water) content: 0.94%
[4]; 25° C., 48 hours
  XRPD after thermodynamic solubility studies: no change from the input material
[6]
  XRPD after salt disproportionation study, 48 hours: no change from the input material
  measured pH after slurrying in water: 2.32
[7]; 40° C./75% RH
  XRPD analysis after storage for 1 week: no change in form from the input material
  Purity after 1 week (%): 98.1%
[7]; 80° C.
  Purity after 1 week (%): 97.5%
[7]; Ambient
  Purity after 1 week (%): 97.9%
[7]
  T = 0 purity (%): 97.9%
  area % purity and form changes after 1 week: no decrease in area % purity or form changes

## O=C(O)/C=C\C(=O)O.O=C(c1ccc(Oc2ccccc2)cc1Cl)c1c[nH]c2ncnc(N[C@@H]3CC[C@@H](CO)OC3)c12 [maleate Form 1]
[1]
  stability under accelerated storage conditions (XRPD): stable

## Cl.O=C(c1ccc(Oc2ccccc2)cc1Cl)c1c[nH]c2ncnc(N[C@@H]3CC[C@@H](CO)OC3)c12 [hydrochloride Form 2]
[1]
  stability under accelerated storage conditions (XRPD): decreased crystallinity

## Br.O=C(c1ccc(Oc2ccccc2)cc1Cl)c1c[nH]c2ncnc(N[C@@H]3CC[C@@H](CO)OC3)c12 [hydrobromide Form 2]
[2]
  Post-DVS XRPD analysis (form): no change in form from the input material
  moisture uptake by DVS: ca. 2.4%
[3]
  KF moisture (water) content: 1.97%
[4]; Input Solvent Water
  pH - 2 Hours at 25° C.: 1.86
  pH - 24 Hours at 25° C.: 1.34
  pH - 48 Hours at 25° C.: 1.86
[4]; [16]
  Solubility: 500 µg/mL
[4]; Input Solvent pH 1
  pH - 2 Hours at 25° C.: 0.27
  pH - 24 Hours at 25° C.: 0.40
  pH - 48 Hours at 25° C.: 0.78
[4]; [17]
  Solubility: <100 µg/mL
[4]; Input Solvent pH 4.5
  pH - 2 Hours at 25° C.: 3.97
  pH - 24 Hours at 25° C.: 3.62
  pH - 48 Hours at 25° C.: 3.84
[4]; [18]
  Solubility: <100 µg/mL
[4]; Input Solvent pH 6.5
  pH - 2 Hours at 25° C.: 3.53
  pH - 24 Hours at 25° C.: 2.61
  pH - 48 Hours at 25° C.: 3.44
[4]; 48 hours
  Solubility (mg/mL): <LOD
[4]; pH 1, 25° C., 48 hours
  XRPD after thermodynamic solubility studies, pH 1: hydrobromide Form 1 and 2 are observed
[4]; water and pH 4.5 and 6.5, 25° C., 48 hours
  XRPD after thermodynamic solubility studies, water and pH 4.5 and 6.5: poorly crystalline
[6]
  XRPD after salt disproportionation study, 24 hours: partially crystalline
  XRPD after salt disproportionation study, 48 hours: staying hydrobromide Form 2
  measured pH after slurrying in water: 1.86
[7]; 40° C./75% RH
  XRPD analysis after storage for 1 week: no change in form from the input material
